Like-named read-outs stand apart in the source and are kept apart here. Where a SMILES comes first, the peptide text is derived from it. Bridges are numbered along the chain shown (N, C = ends). [ ]: non-standard residue; d: D form. The star is where a group is joined. NαAmidinoTrp = N=C(N)N[C@@H](Cc1c[nH]c2ccccc12)C(=O)*; Tle = CC(C)(C)[C@H](N)C(=O)O; dDab = NCC[C@@H](N)C(=O)O; Nle = CCCC[C@H](N)C(=O)O; Orn = NCCC[C@H](N)C(=O)O; Dab = NCC[C@H](N)C(=O)O; Dap = NC[C@H](N)C(=O)O; Sar = CNCC(=O)O
What was measured:
Type in all cases: cell-based
[1] = test system: Klebsiella pneumoniae SSI #3010
Outline: (§1)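 CLSI broth microdilution; MH-II (cation-adjusted) + 0.002% P-80; ~10^6 CFU/mL inoculum; peptide two-fold serial dilutions; 18-20 h, 35° C; MIC = no visible growth, μg/mL.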

[2] = test system: Klebsiella pneumoniae 968733
[3] = test system: Escherichia coli ATCC 25922
Outline: as §1

[4] = test system: Acinetobacter baumannii DSM 30008
Outline: as §1

Escherichia coli 926415 = test system: Escherichia coli 926415
[5] = test system: Pseudomonas aeruginosa ATCC 27853
Outline: as §1

[6] = test system: Acinetobacter baumannii 872842
[7] = test system: human red blood cells (hRBC); assay: Hemolysis of human red blood cells
Outline: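 hRBC washed 3× PBS; 20% v/v, ~0.9×10^9 cells/mL final. Peptide 100 μg/mL, 1 h, 37° C., 300 rpm. Spin, supernatant diluted 8×, OD540. 0% = PBS + 0.001% acetic acid; 100% = 2.5% Triton X-100. % hemolysis = OD540 peptide/OD540 full lysis × 100.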

[8] = red cells of human, 1 h, 100 μg/mL
[9] = clinical isolate, Mueller-Hinton II broth, P-80 0.002% present

## CCCC[C@@H]1NC(=O)[C@@H]2CCCN2C(=O)[C@H]2CCCN2C(=O)[C@H](CO)NC(=O)[C@H](C)NC(=O)[C@H](C(C)(C)C)NC(=O)[C@H](CCN)NC(=O)[C@H](Cc2c[nH]c3ccccc23)NC(=O)[C@@H](N)CSSC[C@@H](C(=O)N[C@H](CCN)C(=O)N[C@H]2CCN(C)C(=O)[C@H](C(C)C)NC(=O)[C@H](CCN)NC(=O)[C@H](CCN)NC(=O)[C@H](CC(C)C)NC(=O)[C@@H](Cc3ccccc3)NC(=O)[C@H](CCN)NC2=O)NC(=O)[C@H](CCCN)NC(=O)[C@H](CCN)NC(=O)[C@H](Cc2ccc(O)cc2)NC(=O)[C@H](CO)NC1=O [Ex. 216]
[1]; SSI #3010
  Klebsiella pneumoniae SSI #3010 MIC: 0.125 µg/mL
[2]; 968733
  Klebsiella pneumoniae 968733 MIC: 0.25 µg/mL
[3]; ATCC 25922
  Escherichia coli ATCC 25922 MIC: 0.125 µg/mL
[4]; DSM 30008
  Acinetobacter baumannii DSM 30008 MIC: 0.125 µg/mL
Escherichia coli 926415; 926415
  Escherichia coli 926415 MIC: 0.0625 µg/mL
[5]; ATCC 27853
  Pseudomonas aeruginosa ATCC 27853 MIC: 0.5 µg/mL
[6]; 872842
  Acinetobacter baumannii 872842 MIC: 0.5 µg/mL
[7]; [8]
  Hemolysis at 100 μg/mL: 1%

## CC(=O)N[C@H]1CSSC[C@@H](C(=O)N[C@H](CCN)C(=O)N[C@H]2CCNC(=O)[C@H]([C@@H](C)O)NC(=O)[C@H](CCN)NC(=O)[C@H](CCN)NC(=O)[C@H](CC(C)C)NC(=O)[C@@H](Cc3ccccc3)NC(=O)[C@H](CCN)NC2=O)NC(=O)[C@H](CCCN)NC(=O)[C@H](CC(N)=O)NC(=O)[C@H](Cc2ccc(O)cc2)NC(=O)[C@@H]2CSSC[C@H](NC(=O)[C@H](Cc3ccc(O)cc3)NC(=O)[C@H](CO)NC(=O)[C@H](Cc3c[nH]c4ccccc34)NC1=O)C(=O)N[C@@H](C(C)C)C(=O)N[C@H](CCN)C(=O)N[C@@H](CCCNC(=N)N)C(=O)N[C@@H](CC(C)C)C(=O)N2 [Ex. 211] (Ac-CWSYCV[dDab]RLCYN[Orn]C[dDab][Dab][Dab][dF]L[Dab][Dab]T; disulfide 1-14, 5-10; lactam 16-C)
[1]; Mueller-Hinton II broth
  Klebsiella pneumoniae SSI #3010 MIC: 1 µg/mL
[2]; [9]
  Klebsiella pneumoniae 968733 MIC: 8 µg/mL
[3]; Mueller-Hinton II broth
  Escherichia coli ATCC 25922 MIC: 0.5 µg/mL
[4]; Mueller-Hinton II broth
  Acinetobacter baumannii DSM 30008 MIC: 1 µg/mL
Escherichia coli 926415; [9]
  Escherichia coli 926415 MIC: 2 µg/mL
[5]; Mueller-Hinton II broth
  Pseudomonas aeruginosa ATCC 27853 MIC: 2 µg/mL
[6]; [9]
  Acinetobacter baumannii 872842 MIC: 2 µg/mL
[7]; 100 μg/mL, 20% hRBC, 1 h at 37° C.
  Hemolysis at 100 μg/mL: 2%

## CCCC[C@@H]1NC(=O)[C@@H]2CCCN2C(=O)[C@H]2CCCN2C(=O)[C@H](CO)NC(=O)[C@H](CO)NC(=O)[C@H](C(C)(C)C)NC(=O)[C@@H](NC(=O)[C@@H](N)Cc2c[nH]c3ccccc23)CSSC[C@@H](C(=O)N(C)CC(=O)N[C@@H](CCN)C(=O)N[C@H](C(=O)N[C@@H](CCN)C(=O)N[C@H]2CCNC(=O)[C@H]([C@@H](C)O)NC(=O)[C@H](CCN)NC(=O)[C@H](CCN)NC(=O)[C@H](CC(C)C)NC(=O)[C@@H](CC(C)C)NC(=O)[C@H](CCN)NC2=O)[C@@H](C)O)NC(=O)[C@H](Cc2ccc(O)cc2)NC(=O)[C@H](CN)NC1=O [Ex. 147] (H-WC[Tle]SS[dP]P[Nle][Dap]YC[Sar][Dab]T[Dab][Dab][Dab][dL]L[Dab][Dab]T; disulfide 2-11; lactam 16-C)
[1]; SSI #3010
  Klebsiella pneumoniae SSI #3010 MIC: 0.0625 µg/mL
[2]; 968733
  Klebsiella pneumoniae 968733 MIC: 0.5 µg/mL
[3]; ATCC 25922
  Escherichia coli ATCC 25922 MIC: 0.0625 µg/mL
[4]; DSM 30008
  Acinetobacter baumannii DSM 30008 MIC: 0.03125 µg/mL
Escherichia coli 926415; 926415
  Escherichia coli 926415 MIC: 0.0625 µg/mL
[5]; ATCC 27853
  Pseudomonas aeruginosa ATCC 27853 MIC: 1 µg/mL
[6]; 872842
  Acinetobacter baumannii 872842 MIC: 0.0625 µg/mL
[7]; [8]
  Hemolysis at 100 μg/mL: <1%

## CC(C)C[C@@H]1NC(=O)[C@@H](CC(C)C)NC(=O)[C@H](CCN)NC(=O)[C@@H](NC(=O)[C@H](CCN)NC(=O)[C@H](CCN)NC(=O)[C@H](CCN)NC(=O)CNC(=O)[C@H](CCN)NC(=O)[C@H](Cc2ccc(O)cc2)NC(=O)[C@@H]2CCNC(=O)C[C@H](NC(=O)[C@@H](NC(=O)[C@H](CCN)NC(=O)[C@H](Cc3c[nH]c4ccccc34)NC(=N)N)C(C)C)C(=O)N[C@@H](Cc3ccc(O)cc3)C(=O)N3CCC[C@@H]3C(=O)N3CCC[C@H]3C(=O)N[C@@H](C(C)C)C(=O)N2)CCNC(=O)[C@H]([C@@H](C)O)NC(=O)[C@H](CCN)NC(=O)[C@H](CCN)NC1=O [Ex. 172] (NαAmidinoTrp-[Dab]VDY[dP]PV[Dab]Y[Dab]G[Dab][Dab][Dab][Dab][Dab][dL]L[Dab][Dab]T; lactam 3-8, 15-C)
[1]; SSI #3010
  Klebsiella pneumoniae SSI #3010 MIC: 0.125 µg/mL
[2]; 968733
  Klebsiella pneumoniae 968733 MIC: 0.5 µg/mL
[3]; ATCC 25922
  Escherichia coli ATCC 25922 MIC: 0.0625 µg/mL
[4]; DSM 30008
  Acinetobacter baumannii DSM 30008 MIC: 0.0625 µg/mL
Escherichia coli 926415; 926415
  Escherichia coli 926415 MIC: 0.5 µg/mL
[5]; ATCC 27853
  Pseudomonas aeruginosa ATCC 27853 MIC: 0.125 µg/mL
[6]; 872842
  Acinetobacter baumannii 872842 MIC: 0.25 µg/mL
[7]; red cells of human, 1 h, 100
  Hemolysis at 100 μg/mL: 1%
